Measured values taken from ChEMBL document CHEMBL1201861, “Genomics of Drug Sensitity in Cancer screening data, Wellcome Trust Sanger Institute”.

Experiments:
Type in all cases: functional, cell-based
P31-FUJ = assay: cells; conditions: Homo sapiens;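 further: growth inhibition of P31-FUJ cells, read out with a viability assay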
Description: SANGER: Inhibition of human P31-FUJ cell growth in a cell viability assay.

NCI-H1436 = assay: cells; conditions: Homo sapiens;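 further: growth suppression of human NCI-H1436 cells, determined with a cell viability readout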
Description: SANGER: Inhibition of human NCI-H1436 cell growth in a cell viability assay.

LB996-RCC = assay: cells; conditions: Homo sapiens
Description: SANGER: Inhibition of human LB996-RCC cell growth in a cell viability assay.

GDM-1 = assay: cells; conditions: Homo sapiens;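 further: cell viability readout used to measure growth inhibition of human GDM-1 cells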
Description: SANGER: Inhibition of human GDM-1 cell growth in a cell viability assay.

BL-41 = assay: cells; conditions: Homo sapiens;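 further: growth inhibition of human BL-41 cells, read out with a cell viability assay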
Description: SANGER: Inhibition of human BL-41 cell growth in a cell viability assay.

LB647-SCLC = assay: cells; conditions: Homo sapiens;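 further: cell growth inhibition, read out by a viability assay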
Description: SANGER: Inhibition of human LB647-SCLC cell growth in a cell viability assay.

BC1 cell line = assay: SANGER: Inhibition of human BC-1 cell growth in a cell viability assay.
RPMI 8402 = assay: SANGER: Inhibition of human RPMI-8402 cell growth in a cell viability assay.
COR-L279 = assay: SANGER: Inhibition of human COR-L279 cell growth in a cell viability assay.
NCI-H2141 = assay: cells; conditions: Homo sapiens;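 further: growth inhibition of human NCI-H2141 cells, read out with a cell viability assay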
Description: SANGER: Inhibition of human NCI-H2141 cell growth in a cell viability assay.

TE-15 = assay: cells; conditions: Homo sapiens;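 further: cell viability readout of growth inhibition in TE-15 cells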
Description: SANGER: Inhibition of human TE-15 cell growth in a cell viability assay.

SIG-M5 = assay: cells; conditions: Homo sapiens;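 further: cell viability assay read-out, measuring how strongly growth of cultured human SIG-M5 cells is inhibited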
Description: SANGER: Inhibition of human SIG-M5 cell growth in a cell viability assay.

NCI-H889 = assay: cells; conditions: Homo sapiens;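 further: cell growth inhibition of the cell line, read out with a viability assay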
Description: SANGER: Inhibition of human NCI-H889 cell growth in a cell viability assay.

LC-1F = assay: cells; conditions: Homo sapiens;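 further: growth inhibition of human LC-1F cells, read out with a cell viability assay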
Description: SANGER: Inhibition of human LC-1F cell growth in a cell viability assay.

BC-3 = assay: cells; conditions: Homo sapiens;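 further: cell viability assay measuring growth inhibition of human BC-3 cells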
Description: SANGER: Inhibition of human BC-3 cell growth in a cell viability assay.

SNU-C1 = assay: cells; conditions: Homo sapiens;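 further: growth inhibition of SNU-C1 human cells, read out by a cell viability assay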
Description: SANGER: Inhibition of human SNU-C1 cell growth in a cell viability assay.

SK-MM-2 = assay: cells; conditions: Homo sapiens;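 further: growth inhibition of human SK-MM-2 cells, read out with a cell viability assay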
Description: SANGER: Inhibition of human SK-MM-2 cell growth in a cell viability assay.

Daudi = assay: cells; conditions: Homo sapiens;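 further: growth inhibition of Daudi cells, read out by a viability assay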
Description: SANGER: Inhibition of human Daudi cell growth in a cell viability assay.

Row | SMILES | IC50 (P31-FUJ) | IC50 (NCI-H1436) | IC50 (LB996-RCC) | IC50 (GDM-1) | IC50 (BL-41) | IC50 (LB647-SCLC) | IC50 (BC1 cell line) | IC50 (RPMI 8402) | IC50 (COR-L279) | IC50 (NCI-H2141) | IC50 (TE-15) | IC50 (SIG-M5) | IC50 (NCI-H889) | IC50 (LC-1F) | IC50 (BC-3) | IC50 (SNU-C1) | IC50 (SK-MM-2) | IC50 (Daudi)
1 | CCNc1cc(N[C@H]2CC[C@@H](O)CC2)nc(Nc2ccc3c(ccn3Cc3ccccc3)c2)n1 | > 5120 nM | > 5120 nM | > 5120 nM | > 5120 nM | > 5120 nM | > 5120 nM | > 5120 nM | 3480 nM | > 5120 nM | > 5120 nM | 5120 nM | > 5120 nM | > 5120 nM | > 5120 nM | > 5120 nM | > 5120 nM | > 5120 nM | > 5120 nM
2 | COc1cc(C)c(Sc2cnc(NC(=O)c3ccc(CNC(C)C(C)(C)C)cc3)s2)cc1C(=O)N1CCN(C(C)=O)CC1 (configuration not stated) | > 10200 nM | > 10200 nM | > 10200 nM | > 10200 nM | > 10200 nM | > 10200 nM | 9110 nM | > 10200 nM | > 10200 nM | > 10200 nM | > 10200 nM | 8070 nM | > 10200 nM | > 10200 nM | > 10200 nM | > 10200 nM | > 10200 nM | > 10200 nM
3 | Cc1n[nH]c2ccc(-c3cncc(OC[C@@H](N)Cc4c[nH]c5ccccc45)c3)cc12 [A-443654] | > 1020 nM | 477 nM | 122 nM | > 1020 nM | 96.3 nM | 224 nM | 701 nM | 184 nM | 570 nM | 540 nM | 59.1 nM | 130 nM | > 1020 nM | 181 nM | 342 nM | > 1020 nM | 623 nM | 355 nM
4 | Cc1nc(Nc2ncc(C(=O)Nc3c(C)cccc3Cl)s2)cc(N2CCN(CCO)CC2)n1 [DASATINIB] | > 1280 nM | > 1280 nM | 9.91 nM | > 1280 nM | 291 nM | > 1280 nM | > 1280 nM | > 1280 nM | > 1280 nM | > 1280 nM | 5.89 nM | > 1280 nM | > 1280 nM | > 1280 nM | > 1280 nM | > 1280 nM | > 1280 nM | > 1280 nM
